Earlier results, collected in patent publication US20170108488A1, “Array and Method of Use” (Quick Biology, Inc., priority 2015, published 2017).

Tests used:
SB-2 tumor xenograft = conditions: in combination with the MEK inhibitor GSK1120212; NRAS mutant melanoma
BRAF = BRAF (Homo sapiens, UniProt P15056, V600E); conditions: melanomas with BRAF activating mutations
BRAF, sequence (P15056 whole entry V600E): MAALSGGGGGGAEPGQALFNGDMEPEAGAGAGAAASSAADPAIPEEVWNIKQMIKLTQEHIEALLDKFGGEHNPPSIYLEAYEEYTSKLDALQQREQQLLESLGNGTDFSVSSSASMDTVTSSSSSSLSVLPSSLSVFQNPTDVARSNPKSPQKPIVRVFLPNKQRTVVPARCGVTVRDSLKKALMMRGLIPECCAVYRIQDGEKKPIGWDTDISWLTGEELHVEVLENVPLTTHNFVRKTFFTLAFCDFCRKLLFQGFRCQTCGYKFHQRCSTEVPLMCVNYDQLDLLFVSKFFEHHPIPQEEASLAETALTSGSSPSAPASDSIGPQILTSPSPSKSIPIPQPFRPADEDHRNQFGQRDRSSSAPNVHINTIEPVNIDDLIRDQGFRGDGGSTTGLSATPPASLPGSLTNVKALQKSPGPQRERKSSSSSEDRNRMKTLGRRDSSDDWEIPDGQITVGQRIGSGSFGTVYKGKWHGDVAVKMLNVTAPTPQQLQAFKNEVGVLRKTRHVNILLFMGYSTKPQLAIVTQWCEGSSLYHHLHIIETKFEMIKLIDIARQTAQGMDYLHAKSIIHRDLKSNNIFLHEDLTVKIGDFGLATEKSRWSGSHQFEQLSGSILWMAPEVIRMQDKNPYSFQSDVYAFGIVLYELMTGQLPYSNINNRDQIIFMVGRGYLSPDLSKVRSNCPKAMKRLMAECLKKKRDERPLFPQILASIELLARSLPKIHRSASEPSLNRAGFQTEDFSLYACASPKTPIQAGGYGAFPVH

| Compound | tumor response in SB-2 tumor xenograft (SB-2 tumor xenograft) | success rate in melanomas (BRAF) |
| --- | --- | --- |
| CC(=O)c1c(C)c2cnc(Nc3ccc(N4CCNCC4)cn3)nc2n(C2CCCC2)c1=O [PD-0332991] | tumor regression was achieved |  |
| CCCS(=O)(=O)Nc1ccc(F)c(C(=O)c2c[nH]c3ncc(-c4ccc(Cl)cc4)cc23)c1F [PLX4032] |  | high success rate |
